From ChEMBL document CHEMBL4819138, “Promising anti-SARS-CoV-2 drugs by effective dual targeting against the viral and host proteases” (Bioorg Med Chem Lett, 2021)

How the values were obtained:
[1] = target: Replicase polyprotein 1ab (Severe acute respiratory syndrome coronavirus 2) (UniProt P0DTD1); assay: Inhibition of SARS-CoV-2 papain-like protease at 100 microg/ml relative to control; settings: dose 100.0 µg/ml
[2] = target: Replicase polyprotein 1ab (Severe acute respiratory syndrome coronavirus 2) (UniProt P0DTD1); assay: Inhibition of SARS-CoV-2 main protease at 100 microg/ml relative to control; settings: dose 100.0 µg/ml
[3] = system: Fibroblast; assay: Cytotoxicity against human fibroblasts cells assessed as cell growth inhibition by MTT assay; type: cell-based
[4] = system: SARS-CoV-2; assay: Antiviral activity against SARS-CoV-2 NRC-03-nhCoV strain infected in Vero E6 cells; type: functional, organism-based; settings: Severe acute respiratory syndrome coronavirus 2, NRC-03-nhCoV, Vero C1008

SMILES: O=C(CSc1nnc(NC2CC2)s1)Nc1ccccc1C(=O)Nc1ccc2c(c1)OCO2
- inhibition [1]: > 40%
- inhibition [2]: 26.4%

SMILES: COc1cc(C(NC2=NC(=O)C(CC(=O)Nc3ccc(C(=O)O)cc3)S2)c2c(O)[nH]c(=O)[nH]c2=O)ccc1O (configuration not stated)
- IC50 [3]: 1670 nM
- IC50 [4]: 770 nM
- inhibition [1]: 56.4%
- inhibition [2]: 31%

SMILES: N=C(N/N=C/c1ccccc1O)c1nonc1NCNc1nonc1C(=N)N/N=C/c1ccccc1O
- IC50 [3]: 410 nM
- IC50 [4]: 110 nM

SMILES: COc1cc(CC(C)NCc2cc(NC(=O)c3ccccn3)cc(C(=O)N(C)C)c2)ccc1O (configuration not stated)
- inhibition [1]: > 40%

SMILES: CCOC(=O)C(Cc1c[nH]c2ccccc12)NC(=O)CCC(=O)Nc1ccc(S(N)(=O)=O)cc1 (configuration not stated)
- inhibition [1]: > 40%

SMILES: O=C(CSc1nnc2c(n1)[nH]c1ccccc12)Nc1cccc(S(=O)(=O)N2CCOCC2)c1
- inhibition [1]: > 40%

SMILES: COc1ccc(/C=C\C(=O)NC(=S)Nc2ccc(S(=O)(=O)NC(N)=O)cc2)cc1OC
- inhibition [1]: > 40%
